{
  "source": "paper PMC10794144",
  "about": "“A novel antibiotic class targeting the lipopolysaccharide transporter” (Nature, 2024)",
  "key": {"A. baumannii [1]": {"system": "A. baumannii", "test": "Bacterial phenotypic fingerprint profiling", "type": "cell-based, Acinetobacter baumannii", "conditions": "random forest model", "description": "Sample preparation and analysis was conducted as previously described[26] for A. baumannii, with the generated and analysed dataset consisting of three independent experiments, n = 3, as the only modification to the protocol.\nFor the random forest analysis data proximity analysis from 4x and 8x LOED are pooled and the number of datapoints are reduced by down sampling to be equal for all reference conditions the maximal projection of the analysis. b, In the right panel an out-of-bag validation of the random forest classification model is indicated for the reference compounds. […] The degree of frequency of matching prediction correspond to the length of the individual bar segment, where a longer segment represents a higher similarity. […] Source Data"}, "[2]": {"test": "Five-day repeat dose tolerability study", "type": "in vivo, rat", "conditions": "for Clinical observations: male Wistar rats, n = 4; for Clinical chemistry / Coagulation / Haematology: 5 days", "description": "Assessment of tolerability was based on mortality, in-life observations, body weight, food consumption and clinical pathology during the in-life phase. Moreover, gross pathology and histopathology were performed at unscheduled or scheduled euthanasia on day 6."}, "[3]": {"test": "Rat plasma precipitation assay", "conditions": "Wistar rat heparin plasma 1:1 with compound in saline/PBS; absorbance difference OD362 ≥ 0.05; n = 1", "description": "Whole blood was obtained from WISTAR rats and collected in 1.2 ml heparin tubes for the preparation of heparin plasma. The tubes were then centrifuged for 5 min at 5,200g at room temperature to isolate the plasma supernatant. Test compounds were received as powder and solubilized at various concentrations in 0.9% aqueous sodium chloride solution and adjusted for pH with phosphate-buffered saline (PBS). The assay was conducted in 384-well plates. Rat plasma (10 µl) was added to 10 µl of the various compound solutions. A total of 10 µl of vehicle (0.9% aqueous sodium chloride solution, PBS) added to the plasma was used as a negative control. The absorption was measured at 362 nm. Raw data were obtained as absorbance data. The difference between the absorbance of the sample and the mean absorbance of the vehicle was calculated. The minimum effect concentration was defined as the lowest concentration giving an absorbance difference of OD362 ≥ 0.05."}, "A. baumannii [4]": {"system": "A. baumannii", "test": "MIC, broth microdilution in CAMHB supplemented with human serum, read at 100% growth inhibition", "type": "cell-based, Acinetobacter baumannii", "description": "MIC determinations were performed using the broth microdilution method and in line with CLSI guidelines M07 and M100 (refs. [37],[38]). Bacterial inocula were prepared by diluting a 0.5 McFarland suspension in CAMHB or lysogeny broth (LB) specifically for A. baylyi isolates. […] MIC values of all of the tested antibiotics were read as the lowest compound concentration inhibiting bacterial growth by naked eye or beyond which the OD600 ceased to decrease."}},
  "note": "Read-outs that look alike come from different tables or passages of the source.",
  "data": [
    {"molecule": "CN1C(=O)[C@H](CCCCN)NC(=O)[C@H](CCCN)NCc2cccnc2Sc2cccc(-c3ccc(C(=O)O)cc3)c2CNC(=O)[C@@H]1Cc1c[nH]c2ccccc12", "note": "[zosurabalpin]", "values": [
      {"measurement": "Similarity towards RO7202110", "setting": "A. baumannii [1]", "value": "> 70", "unit": "%"},
      {"measurement": "Clinical observations", "setting": "[2]; 0.6 mg/kg slow IV once daily for 5 days", "value": "Transiently discolored tail after dosing"},
      {"measurement": "Clinical observations", "setting": "[2]; 6 mg/kg slow IV once daily for 5 days", "value": "Transiently discolored tail after dosing, body weight loss"},
      {"measurement": "Clinical chemistry", "setting": "[2]; rats, 0.6 mg/kg IV", "value": "No relevant changes"},
      {"measurement": "Coagulation", "setting": "[2]; rats, 0.6 mg/kg IV", "value": "No change"},
      {"measurement": "Haematology", "setting": "[2]; rats, 0.6 mg/kg IV", "value": "No change"},
      {"measurement": "Clinical chemistry", "setting": "[2]; rats, 6 mg/kg IV", "value": "Minimally increased BUN, creatine. Minimally decreased phosphorus"},
      {"measurement": "Coagulation", "setting": "[2]; rats, 6 mg/kg IV", "value": "No change"},
      {"measurement": "Haematology", "setting": "[2]; rats, 6 mg/kg IV", "value": "No change"},
      {"measurement": "MTD", "setting": "[2]; rats, slow IV once daily for 5 days", "value": 6, "unit": "mg/kg"},
      {"measurement": "Threshold concentration for precipitation", "setting": "[3]", "value": 1.76, "unit": "mg/mL"},
      {"measurement": "MIC range", "setting": "A. baumannii [4]; 129 clinical isolates", "value": "≤0.016 to 4", "unit": "µg/mL"},
      {"measurement": "MIC", "setting": "A. baumannii [4]; ACC01073, CAMHB + 20% HS", "value": 2, "unit": "µg/mL"},
      {"measurement": "MIC", "setting": "A. baumannii [4]; Acinetobacter baumannii, ACC00445, CAMHB + 20% HS, read-out: MIC", "value": 0.25, "unit": "µg/mL"},
      {"measurement": "MIC", "setting": "A. baumannii [4]; Acinetobacter baumannii, ACC00535, CAMHB + 20% HS, read-out: MIC", "value": 0.12, "unit": "µg/mL"},
      {"measurement": "MIC", "setting": "A. baumannii [4]; Acinetobacter baumannii, ACC01073, CAMHB + 20% HS, read-out: MIC", "value": 2, "unit": "µg/mL"},
      {"measurement": "MIC", "setting": "A. baumannii [4]; Acinetobacter baumannii, ACC01077, CAMHB + 20% HS, read-out: MIC", "value": 0.25, "unit": "µg/mL"},
      {"measurement": "MIC", "setting": "A. baumannii [4]; Acinetobacter baumannii, ACC01085 / AR0307, CAMHB + 20% HS, read-out: MIC", "value": 0.5, "unit": "µg/mL"},
      {"measurement": "MIC", "setting": "A. baumannii [4]; Acinetobacter baumannii, ATCC17978, ATCC 17978, CAMHB + 20% HS, read-out: MIC", "value": 0.12, "unit": "µg/mL"},
      {"measurement": "MIC", "setting": "A. baumannii [4]; Acinetobacter baumannii, ATCC19606, ATCC 19606, CAMHB + 20% HS, read-out: MIC", "value": 0.5, "unit": "µg/mL"},
      {"measurement": "MIC", "setting": "A. baumannii [4]; Acinetobacter baumannii, ATCCBAA747, ATCC BAA-747, CAMHB + 20% HS, read-out: MIC", "value": "≤ 0.06", "unit": "µg/mL"},
      {"measurement": "MIC", "setting": "A. baumannii [4]; Acinetobacter baumannii, ROB08701, 129-isolate panel, 20% HS, read-out: MIC", "value": 0.06, "unit": "µg/mL"},
      {"measurement": "MIC", "setting": "A. baumannii [4]; Acinetobacter baumannii, ROB08701, CAMHB + 20% HS, read-out: MIC", "value": "≤ 0.06", "unit": "µg/mL"},
      {"measurement": "MIC", "setting": "A. baumannii [4]; Acinetobacter baumannii, ROB08702, 129-isolate panel, 20% HS, read-out: MIC", "value": 0.125, "unit": "µg/mL"},
      {"measurement": "MIC", "setting": "A. baumannii [4]; Acinetobacter baumannii, ROB08702, CAMHB + 20% HS, read-out: MIC", "value": 0.12, "unit": "µg/mL"},
      {"measurement": "MIC", "setting": "A. baumannii [4]; Acinetobacter baumannii, ROB08703, 129-isolate panel, 20% HS, read-out: MIC", "value": 0.5, "unit": "µg/mL"},
      {"measurement": "MIC", "setting": "A. baumannii [4]; Acinetobacter baumannii, ROB08703, CAMHB + 20% HS, read-out: MIC", "value": 2, "unit": "µg/mL"},
      {"measurement": "MIC", "setting": "A. baumannii [4]; Acinetobacter baumannii, ROB08704, 129-isolate panel, 20% HS, read-out: MIC", "value": 0.25, "unit": "µg/mL"},
      {"measurement": "MIC", "setting": "A. baumannii [4]; Acinetobacter baumannii, ROB08704, CAMHB + 20% HS, read-out: MIC", "value": 0.25, "unit": "µg/mL"},
      {"measurement": "MIC", "setting": "A. baumannii [4]; Acinetobacter baumannii, ROB08705, 129-isolate panel, 20% HS, read-out: MIC", "value": 0.06, "unit": "µg/mL"},
      {"measurement": "MIC", "setting": "A. baumannii [4]; Acinetobacter baumannii, ROB08705, CAMHB + 20% HS, read-out: MIC", "value": 0.25, "unit": "µg/mL"},
      {"measurement": "MIC", "setting": "A. baumannii [4]; Acinetobacter baumannii, ROB08706, 129-isolate panel, 20% HS, read-out: MIC", "value": 0.125, "unit": "µg/mL"},
      {"measurement": "MIC", "setting": "A. baumannii [4]; Acinetobacter baumannii, ROB08706, CAMHB + 20% HS, read-out: MIC", "value": 1, "unit": "µg/mL"},
      {"measurement": "MIC", "setting": "A. baumannii [4]; Acinetobacter baumannii, ROB08707, 129-isolate panel, 20% HS, read-out: MIC", "value": 0.03, "unit": "µg/mL"},
      {"measurement": "MIC", "setting": "A. baumannii [4]; Acinetobacter baumannii, ROB08707, CAMHB + 20% HS, read-out: MIC", "value": "≤ 0.06", "unit": "µg/mL"},
      {"measurement": "MIC", "setting": "A. baumannii [4]; Acinetobacter baumannii, ROB08708, 129-isolate panel, 20% HS, read-out: MIC", "value": 0.125, "unit": "µg/mL"},
      {"measurement": "MIC", "setting": "A. baumannii [4]; Acinetobacter baumannii, ROB08708, CAMHB + 20% HS, read-out: MIC", "value": 0.25, "unit": "µg/mL"},
      {"measurement": "MIC", "setting": "A. baumannii [4]; Acinetobacter baumannii, ROB08709, 129-isolate panel, 20% HS, read-out: MIC", "value": 0.03, "unit": "µg/mL"},
      {"measurement": "MIC", "setting": "A. baumannii [4]; Acinetobacter baumannii, ROB08709, CAMHB + 20% HS, read-out: MIC", "value": "≤ 0.06", "unit": "µg/mL"},
      {"measurement": "MIC", "setting": "A. baumannii [4]; Acinetobacter baumannii, ROB08710, 129-isolate panel, 20% HS, read-out: MIC", "value": 0.125, "unit": "µg/mL"},
      {"measurement": "MIC", "setting": "A. baumannii [4]; Acinetobacter baumannii, ROB08710, CAMHB + 20% HS, read-out: MIC", "value": 0.12, "unit": "µg/mL"},
      {"measurement": "MIC", "setting": "A. baumannii [4]; Acinetobacter baumannii, ROB08961 (LpxM NS), 20% HS, read-out: MIC", "value": 4, "unit": "µg/mL"},
      {"measurement": "MIC", "setting": "A. baumannii [4]; Acinetobacter baumannii, ROB08979 (LptF R322L), 20% HS, read-out: MIC", "value": 8, "unit": "µg/mL"},
      {"measurement": "MIC", "setting": "A. baumannii [4]; Acinetobacter baumannii, ROB08982 (lpxM ISAba1), 20% HS, read-out: MIC", "value": 4, "unit": "µg/mL"},
      {"measurement": "MIC", "setting": "A. baumannii [4]; Acinetobacter baumannii, ROB08985 (LpxM NS), 20% HS, read-out: MIC", "value": 4, "unit": "µg/mL"},
      {"measurement": "MIC", "setting": "A. baumannii [4]; Acinetobacter baumannii, ROB08997 (LptF I323K), 20% HS, read-out: MIC", "value": 16, "unit": "µg/mL"},
      {"measurement": "MIC", "setting": "A. baumannii [4]; Acinetobacter baumannii, ROB08998 (AdeR A91V), 20% HS, read-out: MIC", "value": 8, "unit": "µg/mL"},
      {"measurement": "MIC", "setting": "A. baumannii [4]; Acinetobacter baumannii, ROB09000 (lpxM ISAba1), 20% HS, read-out: MIC", "value": 8, "unit": "µg/mL"},
      {"measurement": "MIC", "setting": "A. baumannii [4]; Acinetobacter baumannii, ROB21530 (LptF W271S), 20% HS, read-out: MIC", "value": 16, "unit": "µg/mL"},
      {"measurement": "MIC", "setting": "A. baumannii [4]; Acinetobacter baumannii, ROB21531 (LptG G40D), 20% HS, read-out: MIC", "value": 8, "unit": "µg/mL"},
      {"measurement": "MIC", "setting": "A. baumannii [4]; Acinetobacter baumannii, ROB21532 (LptF R322C), 20% HS, read-out: MIC", "value": 64, "unit": "µg/mL"},
      {"measurement": "MIC", "setting": "A. baumannii [4]; Acinetobacter baumannii, ROB21533 (LptF I317L), 20% HS, read-out: MIC", "value": 64, "unit": "µg/mL"},
      {"measurement": "MIC", "setting": "A. baumannii [4]; Acinetobacter baumannii, ROB23370 (adeS ISAba1), 20% HS, read-out: MIC", "value": 4, "unit": "µg/mL"},
      {"measurement": "MIC", "setting": "A. baumannii [4]; Acinetobacter baumannii, ROB23371 (AdeS R152K), 20% HS, read-out: MIC", "value": 4, "unit": "µg/mL"},
      {"measurement": "MIC", "setting": "A. baumannii [4]; Acinetobacter baumannii, ROB23373 (AdeS G318S), 20% HS, read-out: MIC", "value": 2, "unit": "µg/mL"}
    ]}
  ]
}
